The test concerns the target HAT p300 (histone acetyltransferase p300) (Homo sapiens, UniProt Q09472). Briefly: HAT activity kit (Biovision K332): inhibition of HAT activity of p300. It is filed as biochemical. Particulars: for IC50: 0.5, 1, 10 or 100 μM; for HAT activity inhibitory effect (HAT p300 activity inhibited): Synthesis Examples diluted to 100 μM. On the procedure:
Candidates 1 to 67, which are HAT inhibitors manufactured based on the PCAF structure, and HAT-24, HAT-26, and HAT-28 were diluted to 100 μM, and the degree of inhibition of HAT activity of p300 (inhibitory activity) was then determined using a kit for measuring HAT activity (Biovision, Cat No. K332, U.S.A) according to the method provided by the manufacturer. Here, the tissue was treated with C646 (HAT inhibitor) as a positive control.
Candidates 1 to 14 having a good HAT activity inhibitory effect in Section were diluted to concentrations of 0.5 μM, 1 μM, 10 μM, and 100 μM. Thereafter, the degree of inhibition of HAT activity was determined in the same manner as in Section.
Each of Synthesis Examples 1 to 24 was diluted to 100 μM, and the degree of inhibition of HAT p300 activity was determined in the same manner as in Section. Here, the tissues were treated with C646 and Candidate 12 (HAT-12) as the control instead of Synthesis Examples 1 to 24.

HAT p300 (histone acetyltransferase p300), sequence (Q09472 whole entry): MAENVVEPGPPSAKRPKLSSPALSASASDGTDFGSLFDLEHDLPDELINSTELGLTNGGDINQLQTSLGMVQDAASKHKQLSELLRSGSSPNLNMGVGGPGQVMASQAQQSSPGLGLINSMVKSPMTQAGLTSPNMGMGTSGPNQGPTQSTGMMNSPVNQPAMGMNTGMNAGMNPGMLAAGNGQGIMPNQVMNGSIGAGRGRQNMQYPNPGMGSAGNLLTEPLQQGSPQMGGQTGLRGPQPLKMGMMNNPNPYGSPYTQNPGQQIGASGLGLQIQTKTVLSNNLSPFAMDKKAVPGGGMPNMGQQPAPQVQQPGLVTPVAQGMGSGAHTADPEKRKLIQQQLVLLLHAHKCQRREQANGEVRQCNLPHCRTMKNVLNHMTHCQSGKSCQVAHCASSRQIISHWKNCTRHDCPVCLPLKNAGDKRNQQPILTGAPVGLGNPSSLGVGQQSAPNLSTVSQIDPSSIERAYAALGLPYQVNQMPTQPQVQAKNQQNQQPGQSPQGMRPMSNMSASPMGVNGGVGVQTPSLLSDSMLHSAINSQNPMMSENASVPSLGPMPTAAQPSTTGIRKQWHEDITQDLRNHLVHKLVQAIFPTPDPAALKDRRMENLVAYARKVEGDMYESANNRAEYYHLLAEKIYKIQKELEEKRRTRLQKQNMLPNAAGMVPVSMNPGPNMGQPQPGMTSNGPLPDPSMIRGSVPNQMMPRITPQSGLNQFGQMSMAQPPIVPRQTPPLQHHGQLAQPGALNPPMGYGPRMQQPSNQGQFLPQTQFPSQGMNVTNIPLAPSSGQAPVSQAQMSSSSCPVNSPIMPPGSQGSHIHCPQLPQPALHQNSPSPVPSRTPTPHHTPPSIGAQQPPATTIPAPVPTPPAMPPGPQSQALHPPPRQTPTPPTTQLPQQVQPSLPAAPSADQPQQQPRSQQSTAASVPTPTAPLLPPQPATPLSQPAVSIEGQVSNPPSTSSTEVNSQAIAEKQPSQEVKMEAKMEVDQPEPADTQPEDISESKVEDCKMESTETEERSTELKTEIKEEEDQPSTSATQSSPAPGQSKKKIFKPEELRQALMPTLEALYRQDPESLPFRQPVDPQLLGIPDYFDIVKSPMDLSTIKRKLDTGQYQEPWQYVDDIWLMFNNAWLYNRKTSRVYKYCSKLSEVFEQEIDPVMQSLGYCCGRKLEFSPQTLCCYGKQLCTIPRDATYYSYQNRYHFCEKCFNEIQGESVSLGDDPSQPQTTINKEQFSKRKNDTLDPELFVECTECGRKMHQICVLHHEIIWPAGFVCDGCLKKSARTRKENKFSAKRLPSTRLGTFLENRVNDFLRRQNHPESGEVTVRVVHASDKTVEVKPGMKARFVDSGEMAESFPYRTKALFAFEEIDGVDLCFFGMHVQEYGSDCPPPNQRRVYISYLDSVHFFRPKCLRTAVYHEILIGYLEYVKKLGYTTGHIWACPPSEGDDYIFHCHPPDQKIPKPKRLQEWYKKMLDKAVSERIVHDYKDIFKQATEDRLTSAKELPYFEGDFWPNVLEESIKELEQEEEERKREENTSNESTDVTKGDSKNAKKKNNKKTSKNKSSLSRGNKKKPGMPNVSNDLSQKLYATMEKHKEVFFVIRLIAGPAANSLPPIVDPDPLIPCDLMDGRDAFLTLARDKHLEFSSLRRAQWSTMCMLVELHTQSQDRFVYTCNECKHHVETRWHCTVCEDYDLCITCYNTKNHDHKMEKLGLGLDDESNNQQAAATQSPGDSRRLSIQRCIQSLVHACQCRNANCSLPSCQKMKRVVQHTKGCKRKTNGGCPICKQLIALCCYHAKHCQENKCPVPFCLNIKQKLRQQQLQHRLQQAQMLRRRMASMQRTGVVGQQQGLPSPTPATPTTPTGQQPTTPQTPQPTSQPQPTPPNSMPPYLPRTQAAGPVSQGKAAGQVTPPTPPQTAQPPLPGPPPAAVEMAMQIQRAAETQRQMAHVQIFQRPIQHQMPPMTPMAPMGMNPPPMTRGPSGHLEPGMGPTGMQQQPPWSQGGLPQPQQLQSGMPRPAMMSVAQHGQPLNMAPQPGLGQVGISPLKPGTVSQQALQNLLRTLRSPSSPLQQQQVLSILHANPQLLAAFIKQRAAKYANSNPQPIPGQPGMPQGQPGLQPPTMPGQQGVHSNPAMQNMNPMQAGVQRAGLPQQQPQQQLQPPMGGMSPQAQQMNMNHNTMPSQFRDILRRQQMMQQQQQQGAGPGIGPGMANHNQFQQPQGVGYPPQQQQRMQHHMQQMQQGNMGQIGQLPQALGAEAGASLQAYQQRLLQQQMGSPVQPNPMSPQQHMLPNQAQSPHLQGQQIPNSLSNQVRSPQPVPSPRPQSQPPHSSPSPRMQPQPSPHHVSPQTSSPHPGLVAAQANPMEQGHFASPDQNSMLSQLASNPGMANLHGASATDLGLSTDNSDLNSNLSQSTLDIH

In general, IC50 refers to the midpoint of a concentration-inhibition curve. A lower IC50 goes with higher potency. For `COc1cc(/C=C/C(=O)c2cccc(O)c2)cc(Br)c1OCc1cccc(C(N)=O)c1` [Synthesis Example 8], the IC50 worked out at 1.06 µM and the “HAT activity inhibitory effect (HAT p300 activity inhibited)” value is given as roughly 100%.

For `COc1cc(/C=C/C(=O)c2cccc(C(N)=O)c2)cc(I)c1OCc1cccc(C(N)=O)c1` [Synthesis Example 6, (E)-3-(3-(4-((3-carbamoylbenzyl)oxy)-3-iodo-5-methoxyphenyl)acryloyl) benzamide], the IC50 amounted to 0.87 µM and the “HAT activity inhibitory effect (HAT p300 activity inhibited)” value is roughly 100%.
